Test results: ChEMBL document CHEMBL5360601, “Discovery of Potent, Dual-Inhibitors of Diacylglycerol Kinases Alpha and Zeta Guided by Phenotypic Optimization” (ACS Med Chem Lett, 2023)

What was measured:
[1] = Metabolic stability in human liver microsomes assessed as parent compound remaining; type: ADME, Microsome
Raji [2] = test: IL2 production in PD-L1 positive human Raji cells measured after 24 hrs by Cell titer glo assay
Raji [3] = test: IL2 production in PD-L1 negative human Raji cells measured after 24 hrs by Cell titer glo assay
[4] = Metabolic stability in mouse liver microsomes assessed as parent compound remaining; type: ADME, Microsome
[5] = biological target: T1, Diacylglycerol kinase alpha (Homo sapiens, UniProt P23743); test: Inhibition of DGK alpha (unknown origin)
T1 sequence (P23743 whole entry): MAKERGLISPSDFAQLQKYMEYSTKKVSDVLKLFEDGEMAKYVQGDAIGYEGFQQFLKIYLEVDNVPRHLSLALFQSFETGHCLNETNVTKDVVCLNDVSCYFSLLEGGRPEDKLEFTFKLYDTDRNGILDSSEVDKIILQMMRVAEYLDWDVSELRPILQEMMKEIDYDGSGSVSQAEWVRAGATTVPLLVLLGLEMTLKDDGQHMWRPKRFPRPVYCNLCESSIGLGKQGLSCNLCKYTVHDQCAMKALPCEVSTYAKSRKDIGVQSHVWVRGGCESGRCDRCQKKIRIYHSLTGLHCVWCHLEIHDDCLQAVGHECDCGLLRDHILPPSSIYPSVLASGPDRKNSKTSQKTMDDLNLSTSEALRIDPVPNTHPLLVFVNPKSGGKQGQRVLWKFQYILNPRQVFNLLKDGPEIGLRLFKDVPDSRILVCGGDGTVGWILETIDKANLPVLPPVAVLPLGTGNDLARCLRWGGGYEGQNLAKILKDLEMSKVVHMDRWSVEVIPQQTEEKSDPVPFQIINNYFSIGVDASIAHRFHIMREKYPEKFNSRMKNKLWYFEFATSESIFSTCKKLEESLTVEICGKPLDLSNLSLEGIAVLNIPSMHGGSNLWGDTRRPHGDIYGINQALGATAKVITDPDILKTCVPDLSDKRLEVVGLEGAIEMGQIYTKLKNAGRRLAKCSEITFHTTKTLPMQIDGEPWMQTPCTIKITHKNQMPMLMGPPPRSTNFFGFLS

[6] = biological target: T1, Diacylglycerol kinase alpha; test: Inhibition of human DGK alpha using 1, 2-Dilauroyl-sn-glycerol as substrate by ADP-Glo assay
[7] = biological target: Diacylglycerol kinase zeta (Homo sapiens, UniProt Q13574); test: Inhibition of human DGK zeta using 1, 2-Dilauroyl-sn-glycerol as substrate by ADP-Glo kinase assay
Chain of Diacylglycerol kinase zeta (Q13574 whole entry): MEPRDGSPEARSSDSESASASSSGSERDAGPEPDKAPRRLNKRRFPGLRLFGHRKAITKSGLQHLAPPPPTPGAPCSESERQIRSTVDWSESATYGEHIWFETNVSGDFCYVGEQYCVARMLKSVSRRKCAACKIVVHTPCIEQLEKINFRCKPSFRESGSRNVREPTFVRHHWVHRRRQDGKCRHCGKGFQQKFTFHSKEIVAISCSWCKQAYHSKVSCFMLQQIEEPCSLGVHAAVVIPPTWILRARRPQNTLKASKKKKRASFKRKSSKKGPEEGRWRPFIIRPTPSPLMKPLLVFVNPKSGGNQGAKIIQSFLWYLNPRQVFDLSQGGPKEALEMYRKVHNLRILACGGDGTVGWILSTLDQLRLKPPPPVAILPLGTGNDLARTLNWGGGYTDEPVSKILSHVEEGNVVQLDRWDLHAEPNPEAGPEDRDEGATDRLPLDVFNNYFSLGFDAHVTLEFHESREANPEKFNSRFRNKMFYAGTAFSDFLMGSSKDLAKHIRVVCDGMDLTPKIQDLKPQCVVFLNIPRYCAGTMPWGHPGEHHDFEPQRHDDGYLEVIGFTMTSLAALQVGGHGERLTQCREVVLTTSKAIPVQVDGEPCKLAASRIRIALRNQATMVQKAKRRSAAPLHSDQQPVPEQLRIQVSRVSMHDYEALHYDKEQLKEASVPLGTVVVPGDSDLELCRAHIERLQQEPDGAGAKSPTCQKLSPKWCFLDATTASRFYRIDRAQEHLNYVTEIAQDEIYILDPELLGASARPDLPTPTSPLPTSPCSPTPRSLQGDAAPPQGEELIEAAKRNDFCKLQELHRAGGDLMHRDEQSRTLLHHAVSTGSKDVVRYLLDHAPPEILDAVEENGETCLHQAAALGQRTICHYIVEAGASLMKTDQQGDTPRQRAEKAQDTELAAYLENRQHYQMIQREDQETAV

[8] = biological target: Diacylglycerol kinase iota (Homo sapiens, UniProt O75912); test: Inhibition of human DGK iota using 1, 2-Dilauroyl-sn-glycerol as substrate by ADP-Glo kinase assay
Chain of Diacylglycerol kinase iota (O75912 whole entry): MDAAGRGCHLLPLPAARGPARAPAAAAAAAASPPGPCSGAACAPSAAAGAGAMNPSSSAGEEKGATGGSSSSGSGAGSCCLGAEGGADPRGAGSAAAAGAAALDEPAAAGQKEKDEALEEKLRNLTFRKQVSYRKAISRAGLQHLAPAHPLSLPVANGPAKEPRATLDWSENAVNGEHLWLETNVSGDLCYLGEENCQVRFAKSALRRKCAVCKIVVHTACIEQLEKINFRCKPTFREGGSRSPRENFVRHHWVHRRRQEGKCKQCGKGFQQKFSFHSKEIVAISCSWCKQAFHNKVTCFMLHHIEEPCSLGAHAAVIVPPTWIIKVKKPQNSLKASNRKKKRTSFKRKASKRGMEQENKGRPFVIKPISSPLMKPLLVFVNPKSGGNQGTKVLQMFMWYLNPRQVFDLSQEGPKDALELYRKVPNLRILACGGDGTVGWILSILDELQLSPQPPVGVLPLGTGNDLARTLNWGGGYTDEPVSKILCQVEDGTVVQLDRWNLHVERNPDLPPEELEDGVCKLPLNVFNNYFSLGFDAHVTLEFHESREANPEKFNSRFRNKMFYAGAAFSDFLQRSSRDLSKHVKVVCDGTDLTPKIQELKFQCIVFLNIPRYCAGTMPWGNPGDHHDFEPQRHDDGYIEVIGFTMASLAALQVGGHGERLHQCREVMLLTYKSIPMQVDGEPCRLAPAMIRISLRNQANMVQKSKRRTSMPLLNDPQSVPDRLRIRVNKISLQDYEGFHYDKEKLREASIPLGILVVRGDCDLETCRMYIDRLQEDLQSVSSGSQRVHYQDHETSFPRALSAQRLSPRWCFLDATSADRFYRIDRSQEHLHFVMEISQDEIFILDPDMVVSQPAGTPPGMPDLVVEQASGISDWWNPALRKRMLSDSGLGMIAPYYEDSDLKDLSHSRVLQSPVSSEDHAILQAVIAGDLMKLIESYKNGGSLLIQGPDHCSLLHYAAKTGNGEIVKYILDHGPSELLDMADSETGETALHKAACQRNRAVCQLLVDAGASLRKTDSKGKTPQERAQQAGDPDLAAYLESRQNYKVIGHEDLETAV

[9] = biological target: Diacylglycerol kinase gamma (Homo sapiens, UniProt P49619); test: Inhibition of human DGK gamma using 1, 2-Dilauroyl-sn-glycerol as substrate by ADP-Glo assay
Chain of Diacylglycerol kinase gamma (P49619 whole entry): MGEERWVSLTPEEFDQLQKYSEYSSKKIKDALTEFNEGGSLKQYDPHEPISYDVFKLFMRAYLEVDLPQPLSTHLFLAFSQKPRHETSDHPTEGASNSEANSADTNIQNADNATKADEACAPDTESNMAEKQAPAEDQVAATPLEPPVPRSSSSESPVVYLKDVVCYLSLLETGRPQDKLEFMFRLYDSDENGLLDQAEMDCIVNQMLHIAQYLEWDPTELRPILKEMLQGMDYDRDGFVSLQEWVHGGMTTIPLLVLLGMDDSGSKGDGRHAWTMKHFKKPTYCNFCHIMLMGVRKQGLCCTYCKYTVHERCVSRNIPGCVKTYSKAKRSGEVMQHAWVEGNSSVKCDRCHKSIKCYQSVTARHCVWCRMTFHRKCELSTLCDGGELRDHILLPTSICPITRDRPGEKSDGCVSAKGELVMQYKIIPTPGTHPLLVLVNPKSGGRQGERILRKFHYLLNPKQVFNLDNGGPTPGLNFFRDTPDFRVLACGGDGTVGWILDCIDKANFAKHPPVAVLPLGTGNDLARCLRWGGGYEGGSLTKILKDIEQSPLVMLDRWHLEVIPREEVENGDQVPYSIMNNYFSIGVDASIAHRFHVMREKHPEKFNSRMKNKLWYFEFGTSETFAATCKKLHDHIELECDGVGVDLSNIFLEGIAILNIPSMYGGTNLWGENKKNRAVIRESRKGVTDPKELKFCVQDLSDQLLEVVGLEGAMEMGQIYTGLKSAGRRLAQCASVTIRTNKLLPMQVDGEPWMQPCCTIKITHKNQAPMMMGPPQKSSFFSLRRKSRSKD

[10] = biological target: Diacylglycerol kinase beta (Homo sapiens, UniProt Q9Y6T7); test: Inhibition of human DGK beta using 1, 2-Dilauroyl-sn-glycerol as substrate by ADP-Glo assay
[11] = Inhibition of DGK in human whole blood cell assessed as increase in pERK level incubated for 1 hr followed by anti-human CD3 stimulation and measure after 15 mins by AlphaLISA assay; type: tissue-based
[12] = biological target: T2, Diacylglycerol kinase kappa (Homo sapiens, UniProt Q5KSL6); test: Inhibition of human DGK kappa using 1, 2-Dilauroyl-sn-glycerol as substrate by ADP-Glo kinase assay
T2 sequence (Q5KSL6 whole entry): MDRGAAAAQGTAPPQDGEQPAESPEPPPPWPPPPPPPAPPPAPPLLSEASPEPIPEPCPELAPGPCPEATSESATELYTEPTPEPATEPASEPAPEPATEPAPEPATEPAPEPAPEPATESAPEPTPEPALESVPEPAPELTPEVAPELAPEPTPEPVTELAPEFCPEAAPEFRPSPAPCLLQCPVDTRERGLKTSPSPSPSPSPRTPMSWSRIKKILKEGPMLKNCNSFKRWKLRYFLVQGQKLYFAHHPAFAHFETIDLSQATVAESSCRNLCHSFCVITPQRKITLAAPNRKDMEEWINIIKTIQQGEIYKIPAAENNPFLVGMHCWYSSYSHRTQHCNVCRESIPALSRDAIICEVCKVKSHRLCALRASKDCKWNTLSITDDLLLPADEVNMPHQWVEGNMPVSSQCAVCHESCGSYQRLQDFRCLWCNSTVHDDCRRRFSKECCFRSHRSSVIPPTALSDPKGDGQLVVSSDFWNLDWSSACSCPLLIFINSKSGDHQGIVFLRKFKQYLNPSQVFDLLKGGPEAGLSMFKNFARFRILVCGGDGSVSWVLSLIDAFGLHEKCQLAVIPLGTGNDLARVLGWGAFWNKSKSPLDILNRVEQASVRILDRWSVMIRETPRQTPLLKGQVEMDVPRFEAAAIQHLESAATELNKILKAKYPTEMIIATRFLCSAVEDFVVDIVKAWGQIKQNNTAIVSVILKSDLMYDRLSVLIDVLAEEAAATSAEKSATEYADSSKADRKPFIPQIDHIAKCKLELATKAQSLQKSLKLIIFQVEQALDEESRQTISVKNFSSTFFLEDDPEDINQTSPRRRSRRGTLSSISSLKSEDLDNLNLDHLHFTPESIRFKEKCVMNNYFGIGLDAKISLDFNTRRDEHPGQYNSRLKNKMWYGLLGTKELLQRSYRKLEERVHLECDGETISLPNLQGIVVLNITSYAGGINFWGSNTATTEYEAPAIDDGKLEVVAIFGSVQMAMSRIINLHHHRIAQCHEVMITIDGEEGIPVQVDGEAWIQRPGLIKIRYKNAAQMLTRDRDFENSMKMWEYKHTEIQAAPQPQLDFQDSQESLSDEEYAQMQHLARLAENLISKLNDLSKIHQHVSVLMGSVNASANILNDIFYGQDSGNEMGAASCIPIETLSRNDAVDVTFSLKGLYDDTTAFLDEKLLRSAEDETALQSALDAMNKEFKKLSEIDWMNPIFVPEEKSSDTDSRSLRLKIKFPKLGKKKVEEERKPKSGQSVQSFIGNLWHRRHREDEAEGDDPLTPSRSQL

[13] = Inhibition of DGK in human whole blood cell assessed as increase in IFNgamma level incubated for 1 hr followed by anti-human CD3/ antiCD28 mAB stimulation and measure after 24 hrs by AlphaLISA assay; type: tissue-based
[14] = Induction of proliferation of human CD8-positive T cell measured after 24 hrs by Cell titer glo assay

Stability [1] | EC50 (Raji [2]) | EC50 (Raji [3]) | Stability [4] | SMILES | other results
43% | 1500 nM | 2500 nM | 8% | Cn1c(=O)c([N+](=O)[O-])c(N2CCN(Cc3ccccc3)CC2)c2cc(F)ccc21 | 
28% | > 100000 nM | > 100000 nM | 6% | Cn1c(=O)c([N+](=O)[O-])c(N2CCN(CCc3ccccc3)CC2)c2ccccc21 | 
 | > 33000 nM | > 100000 nM |  | O=c1[nH]c2ccccc2c(N2CCN(C(c3ccc(F)cc3)c3ccc(F)cc3)CC2)c1[N+](=O)[O-] | 
 | 8500 nM | 13000 nM |  | CC(=O)c1c(N2CCN(C(c3ccccc3)c3ccccc3)CC2)c2ccccc2n(C)c1=O | 
 | 7700 nM | 13000 nM |  | Cn1c(=O)c([N+](=O)[O-])c(N2CCN(C(c3ccc(F)cc3)c3ccc(F)cc3)CC2)c2cccnc21 | 
 | > 100000 nM | > 100000 nM |  | CCn1c(=O)c([N+](=O)[O-])c(N2CCN(C(c3ccc(F)cc3)c3ccc(F)cc3)CC2)c2ccccc21 | 
69% | 670 nM | 760 nM | 5% | CN(C)c1ccc2c(c1)c(N1CCN(C(c3ccc(F)cc3)c3ccc(F)cc3)CC1)c([N+](=O)[O-])c(=O)n2C | 
10% | 420 nM | 370 nM | < 1% | C#CCCC1(CCCN2CCN(c3c([N+](=O)[O-])c(=O)n(C)c4ccc(Br)nc34)CC2)N=N1 | 
 |  |  |  | Cc1nc2sccn2c(=O)c1CCN1CCC(=C(c2ccccc2)c2ccc(F)cc2)CC1 | IC50 [5]: 25400 nM
86% | 1500 nM | 3700 nM | 84% | Cn1c(=O)c([N+](=O)[O-])c(N2CCN(C(c3ccc(F)cc3)c3ccc(F)cc3)CC2)c2ccccc21 | 
 |  |  |  | O=C1/C(=C/C=C/c2ccco2)SC(=S)N1NS(=O)(=O)c1ccccc1 | IC50 [6]: 600 nM
97% | 130 nM | 120 nM | 93% | Cn1c(=O)c([N+](=O)[O-])c(N2CCN(C(c3ccc(F)cc3)c3ccc(F)cc3)CC2)c2cc(C#N)ccc21 | IC50 [7]: 10000 nM; IC50 [6]: 34 nM; IC50 [8]: 6200 nM
93% | > 5000 nM | > 16000 nM | 63% | Cn1c(=O)cc(N2CCN(C(c3ccccc3)c3ccccc3)CC2)c2ccccc21 | 
79% | 630 nM | 1200 nM | 8% | COc1ccc2c(c1)c(N1CCN(C(c3ccc(F)cc3)c3ccc(F)cc3)CC1)c([N+](=O)[O-])c(=O)n2C | 
25% | 6390 nM | 9280 nM | 4% | CC(c1ccccc1)N1CCN(c2c([N+](=O)[O-])c(=O)n(C)c3ccccc23)CC1 (stereo not drawn) | 
84% | 610 nM | 1100 nM |  | Cn1c(=O)c(C#N)c(N2CCN(C(c3ccc(F)cc3)c3ccc(F)cc3)CC2)c2cc(F)ccc21 | 
93% | 3200 nM | 2400 nM | 82% | Cn1c(=O)c([N+](=O)[O-])c(N2CCN(C(c3ccccc3)c3ccccc3)CC2)c2ccccc21 | IC50 [7]: > 10000 nM; IC50 [9]: 1900 nM; IC50 [10]: 2500 nM; IC50 [6]: 15 nM; EC50 [11]: > 20000 nM; IC50 [8]: > 10000 nM; IC50 [12]: > 10000 nM; EC50 [13]: > 20000 nM
 | > 100000 nM | > 100000 nM |  | CCCN1CCN(c2c([N+](=O)[O-])c(=O)n(C)c3ccccc23)CC1 | 
 |  |  |  | O=c1c2ccccc2[nH]c(=S)n1CCN1CCC(=C(c2ccc(F)cc2)c2ccc(F)cc2)CC1 [DIACYLGLYCEROL KINASE INHIBITOR II] | IC50 [7]: > 10000 nM; IC50 [9]: 3400 nM; IC50 [10]: > 10000 nM; IC50 [6]: 4300 nM; IC50 [8]: > 10000 nM; EC50 [13]: > 10000 nM; EC50 [14]: > 10000 nM
 | > 100000 nM | > 100000 nM |  | Cn1c(=O)c(C(=O)O)c(N2CCN(C(c3ccccc3)c3ccccc3)CC2)c2ccccc21 | 
92% | 290 nM | 310 nM | 88% | Cn1c(=O)c([N+](=O)[O-])c(N2CCN(C(c3ccc(F)cc3)c3ccc(F)cc3)CC2)c2ncccc21 | IC50 [7]: 2700 nM; IC50 [6]: 53 nM; IC50 [8]: 1000 nM
92% | 190 nM | 67 nM | 80% | Cn1c(=O)c(C#N)c(N2CCN(C(c3ccc(F)cc3)c3ccc(F)cc3)CC2)c2nc(C#N)ccc21 | 
 | 1370 nM | 1240 nM |  | Cn1c(=O)c(C#N)c(N2CCN(C(c3ccccc3)c3ccccc3)CC2)c2ccccc21 | 
100% | 560 nM | 840 nM | 63% | Cn1c(=O)c([N+](=O)[O-])c(N2CCN(C(c3ccc(F)cc3)c3ccc(F)cc3)CC2)c2cnccc21 | 
49% | 4100 nM | 20000 nM | 52% | CCOC(=O)c1c(N2CCN(C(c3ccccc3)c3ccccc3)CC2)c2ccccc2n(C)c1=O | 
75% | 7100 nM | 5800 nM | 63% | Cn1c(=O)c(C(=O)C(F)(F)F)c(N2CCN(C(c3ccccc3)c3ccccc3)CC2)c2ccccc21 | 
89% | 340 nM | 490 nM | 77% | Cn1c(=O)c([N+](=O)[O-])c(N2CCN(C(c3ccc(F)cc3)c3ccc(F)cc3)CC2)c2cc(F)ccc21 | 
 |  |  |  | Cc1nc2sccn2c(=O)c1CCN1CCC(=C(c2ccc(F)cc2)c2ccc(F)cc2)CC1 [RITANSERIN] | IC50 [7]: > 10000 nM; IC50 [9]: > 10000 nM; IC50 [10]: > 10000 nM; IC50 [6]: > 5000 nM; EC50 [11]: > 20000 nM; IC50 [8]: > 10000 nM; EC50 [14]: > 10000 nM; IC50 [5]: 15100 nM
100% | 390 nM | 400 nM | 43% | COc1ccc2c(n1)c(N1CCN(C(c3ccc(F)cc3)c3ccc(F)cc3)CC1)c(C#N)c(=O)n2C | 
 | 2600 nM | 1800 nM |  | Cn1c(=O)c([N+](=O)[O-])c(N2CCN(C(c3ccc(F)cc3)c3ccc(F)cc3)CC2)c2ccc(F)cc21 | 
